Reference: patent US9938222B2 (BRISTOL-MYERS SQUIBB COMPANY, priority 2014, dated 2018)

Target: human GPR120 (Homo sapiens (Human), UniProt Q5NUL3)
Assay: GPR120 pERK AlphaScreen SureFire Assay (human GPR120 pERK assay)
Assay type: cell-based
Details: CHO cells stably transfected with short form of human GPR120
Text: GPR120 activity was monitored by measuring phosphorylation of ERK (pERK), since G protein receptors are known to activate the ERK signaling cascade either directly and/or through recruitment of arrestin that serves as a scaffold for downstream signaling events.
GPR120 pERK AlphaScreen SureFire Assay
The human and mouse GPR120-mediated intracellular phosphorylated ERK assays were established using CHOA12 cells stably transfected with the short form of human or mouse GPR120 receptor. Cells were cultured in growth medium consisting of F-12 media (Invitrogen Cat. #11765) with 5% Charcoal/Dextran FBS (Invitrogen Cat. #12676-029), 500 μg/mL GENETICIN® (Life Technologies Cat. #10131-027) and 250 μg/mL Zeocin (Invitrogen Cat. #R250-01). Cells were cryo-preserved at a concentration of 2×10^7 cells/mL, in 90% Charcoal/Dextran FBS and 10% DMSO, and frozen in liquid nitrogen at a low passage number.
For the pERK assay, 2×10^7 cells/mL cryopreserved human and mouse cells were thawed rapidly in a 37° C. water bath and added to a T-225 flask containing 50 mL growth medium. The flasks were placed in a tissue culture incubator overnight (37° C., 5% CO2). The next day, cells were harvested with trypsin (Gibco Cat. #25300-054), resuspended in serum-containing growth medium and counted using a Cellometer and volume adjusted to a concentration of 0.6×10^6 cells/mL. Cells were plated into 384-well clear bottom tissue culture plates (BD Cat. #353962) at 50 μL/well, for a density of 30,000 cells/well using a MULTIDROP® and incubated for 16-18 hours (overnight) at 37° C. with 5% CO2. The next day, cells were serum starved in 30 μL of F-12 media without any serum or antibiotics for 2 hours at 37° C.
Test compounds were 3-fold, 11-point serially diluted in DMSO in a REMP assay plate (Matrix Cat. #4307) by Tecan and 5 μL was transferred into an ECHO source plate (Labcyte Cat. #LC-0200). Cells were then stimulated with 50 nL of compound dilutions using ECHO liquid handler for 7 min at 37° C. Compounds ranged from final assay concentrations of 33.33 μM to 0.56 nM.
The media was then dumped and cells lysed with 20 μL of 1× Lysis buffer from the AlphaScreen SureFire Phospho-ERK 1/2 Kit (Perkin Elmer Cat. #6760617M). The lysis buffer was diluted 5-fold with water before use. The plate was agitated on a shaker for 10 min after which 2 μL was transferred into a 384-well white proxiplate (Perkin Elmer Cat. #6008289). The SureFire assay reagent mix was prepared by mixing 60 parts Reaction Buffer, 10 parts Activation Buffer, 1 part Donor Beads, 1 part Acceptor Beads (Perkin Elmer Cat. #TGRES10K). 3.5 μL/well of this reagent mix was manually added to the proxiplate with a multichannel pipettor. Plates were spun down at 1000 rpm for 2 min, followed by light-protected incubation at room temperature for 2 hours. The plates were read on the Alpha-technology compatible Envision multilabel plate reader using AlphaScreen protocol according to manufacturer's specifications. The agonist effect of compounds was expressed as 100×(average sample-average blank)/(average total-average blank) where sample is the luminescence activity in the presence of test compound, blank is equal to the luminescence activity in the presence of DMSO control and the total is signal induced by 50 μM linolenic acid as reference compound. Activation data for the test compound over a range of concentrations was plotted as percentage activation of the test compound (100%=maximum response). After correcting for background, EC50 values were determined. The EC50 is defined as the concentration of test compound which produces 50% of the maximal response and was quantified using the 4 parameter logistic equation to fit the data.
The human and mouse GPR120-mediated intracellular phosphorylated ERK assays were also established using CHO-K1 cells stably transfected with the short form of human or mouse GPR120 receptor. […]

Sequence of human GPR120 (Q5NUL3 whole entry): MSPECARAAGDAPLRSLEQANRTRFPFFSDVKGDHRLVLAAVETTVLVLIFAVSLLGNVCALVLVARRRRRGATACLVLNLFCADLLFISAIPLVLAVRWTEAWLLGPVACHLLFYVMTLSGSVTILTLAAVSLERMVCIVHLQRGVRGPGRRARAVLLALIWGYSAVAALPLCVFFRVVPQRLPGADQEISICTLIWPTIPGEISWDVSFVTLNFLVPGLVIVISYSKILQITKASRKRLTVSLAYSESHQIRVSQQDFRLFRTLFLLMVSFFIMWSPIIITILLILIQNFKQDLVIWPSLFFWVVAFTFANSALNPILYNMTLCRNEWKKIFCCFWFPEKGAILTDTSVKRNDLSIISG

| EC50 | EC50 (μM) | Structure (SMILES) |
| --- | --- | --- |
| 280 nM |  | O=C(O)[C@@H]1C[C@H]1COc1ccc(-c2cc(Oc3cc(F)cc(F)c3)ccc2F)cc1 (relative stereo) [Example 43, Trans-2-(((5′-(3,5-difluorophenoxy)-2′-fluoro-[1,1′-biphenyl]-4-yl)oxy)methyl)cyclopropanecarboxylic acid] |
| 250 nM |  | CC(C)Oc1ccc(F)c(-c2ccc(OC[C@H]3C[C@@H]3C(=O)O)cc2)c1 (single isomer, unassigned) [Example 2] |
| 330 nM |  | CC(C)Oc1ccc(F)c(-c2ccc(C[C@@H]3C[C@H]3CC(=O)O)cc2)c1 (single isomer, unassigned) [Example 35, Trans-(2-((2′-fluoro-5′-isopropoxy-[1,1′-biphenyl]-4-yl)methyl)cyclopropyl)acetic acid] |
| 470 nM |  | O=C(O)[C@@H]1C[C@@H]1COc1ccc(-c2cc(Oc3ccccc3)ccc2F)cc1 (racemic) [Example 4, Cis-2-(((2′-fluoro-5′-phenoxy-[1,1′-biphenyl]-4-yl)oxy)methyl)cyclopropanecarboxylic acid] |
| 1350 nM |  | O=C(O)[C@@H]1C[C@H]1COc1ccc(-c2cc(C(F)(F)F)cnc2Cl)cc1 (racemic) [Example 122, Trans-2-((4-(2-chloro-5-(trifluoromethyl)pyridin-3-yl)phenoxy)methyl)cyclopropanecarboxylic acid] |
| 570 nM |  | CC(C)Oc1cc(F)cc(-c2ccc(OC[C@@H]3C[C@H]3C(=O)O)cc2F)c1 (racemic) [Example 60, Trans-2-(((2,3′-difluoro-5′-isopropoxy-[1,1′-biphenyl]-4-yl)oxy)methyl) cyclopropanecarboxylic acid] |
| 260 nM |  | Cc1ccc(Oc2ccc(F)c(-c3ccc(OCC4CC4C(=O)O)c(F)c3)c2)cc1F (racemic) [Example 100, Trans-2-(((2′,3-difluoro-5′-(3-fluoro-4-methylphenoxy)-[1,1′-biphenyl]-4-yl)oxy)methyl)cyclopropanecarboxylic acid] |
| 1430 nM |  | COc1ccc(OC(F)(F)F)cc1-c1ccc(OC[C@@H]2C[C@H]2C(=O)O)cc1 (racemic) [Example 71, Trans-2-(((2′-methoxy-5′-(trifluoromethoxy)-[1,1′-biphenyl]-4-yl)oxy)methyl)cyclopropanecarboxylic acid] |
| 220 nM |  | CC(C)Oc1ccc(F)c(-c2ccc(OC[C@@H]3C[C@H]3C(=O)O)c(Cl)c2)c1 (racemic) [Example 45, Trans-2-(((3-chloro-2′-fluoro-5′-isopropoxy-[1,1′-biphenyl]-4-yl)oxy)methyl)cyclopropanecarboxylic acid] |
| 860 nM |  | CC(C)Oc1ccc(F)c(-c2ccc(CC[C@H]3C[C@]3(C)C(=O)O)cc2)c1 (racemic) [Example 41, Trans-2-(2-(2′-fluoro-5′-isopropoxy-[1,1′-biphenyl]-4-yl)ethyl)-1-methylcyclopropanecarboxylic acid] |
| 410 nM |  | O=C(O)[C@H]1C[C@H]1COc1ccc(-c2cc(Oc3ccccc3)ccc2F)cc1 (single isomer, unassigned) [Example 6] |
| 80 nM |  | O=C(O)[C@@H]1C[C@H]1COc1ccc(-c2cc(Oc3ccccc3)ccc2F)cc1F (single isomer, unassigned) [Example 10] |
| 1720 nM |  | CC1(C)Cc2cc(Cl)cc(-c3ccc(CC[C@@H]4C[C@H]4C(=O)O)cc3)c2O1 (single isomer, unassigned) [Example 26] |
| 420 nM |  | CC(C)Oc1ccc(F)c(-c2ccc(CC[C@H]3C[C@H]3C(=O)O)cc2)c1 (single isomer, unassigned) [Example 16] |
| 330 nM |  | O=C(O)C1CC1COc1ccc(-c2cc(OC(F)(F)F)ccc2F)cc1 (single isomer, unassigned) [Example 53, Trans-2-(((2′-fluoro-5′-(trifluoromethoxy)-[1,1′-biphenyl]-4-yl)oxy)methyl)cyclopropanecarboxylic acid] |
|  | Not active | CC1(C)Cc2c(F)cc(-c3ccc(OC[C@@H]4C[C@H]4C(=O)O)cc3)cc2O1 (racemic) [Example 21, Trans-2-((4-(4-fluoro-2,2-dimethyl-2,3-dihydrobenzofuran-6-yl)phenoxy)methyl) cyclopropanecarboxylic acid] |
| 980 nM |  | O=C(O)[C@@H]1C[C@H]1COCc1ccc(-c2cc(Oc3ccccc3)ccc2F)cc1 (racemic) [Example 25, Trans-2-(((2′-fluoro-5′-phenoxy-[1,1′-biphenyl]-4-yl)methoxy)methyl) cyclopropanecarboxylic acid] |
| 2650 nM |  | CC(C)Oc1ccc(F)c(-c2ccc(CO[C@@H]3C[C@H]3C(=O)O)cc2)c1 (relative stereo) [Example 37, Trans-2-((2′-fluoro-5′-isopropoxy-[1,1′-biphenyl]-4-yl)methoxy)cyclopropanecarboxylic acid] |
| 140 nM |  | Cc1ccc(Oc2ccc(F)c(-c3ccc(OC[C@@H]4C[C@H]4C(=O)O)cc3)c2)cn1 (racemic) [Example 114, Trans-2-(((2′-fluoro-5′-((6-methylpyridin-3-yl)oxy)-[1,1′-biphenyl]-4-yl)oxy)methyl) cyclopropanecarboxylic acid] |
| 1690 nM |  | CC(C)Oc1ccc(F)c(-c2ccc(CC[C@H]3C[C@H]3C(=O)O)cc2)c1 (racemic) [Example 15, (Cis)-(+/−)-2-(2-(2′-fluoro-5′-isopropoxy-[1,1′-biphenyl]-4-yl)ethyl) cyclopropanecarboxylic acid] |
| 470 nM |  | O=C(O)[C@@H]1C[C@H]1CCc1ccc(-c2cc(Oc3ccccc3)ccc2F)cc1 (racemic) [Example 76, Trans-2-(2-(2′-fluoro-5′-phenoxy-[1,1′-biphenyl]-4-yl)ethyl) cyclopropanecarboxylic acid] |
| 200 nM |  | O=C(O)[C@H]1CC1COc1ccc(-c2cc(Oc3cccc(F)c3)ccc2F)cc1F (some centres unmarked) [Example 98] |
| 310 nM |  | Cc1ccc(Oc2cc(F)c(F)c(-c3ccc(OCC4CC4C(=O)O)c(F)c3)c2)cc1F (racemic) [Example 107] |
| 310 nM |  | CC(C)Oc1cc(Cl)cc(-c2ccc(OC[C@H]3C[C@@H]3C(=O)O)c(F)c2)c1 (racemic) [Example 12, Trans-2-(((3′-chloro-3-fluoro-5′-isopropoxy-[1,1′-biphenyl]-4-yl)oxy)methyl) cyclopropanecarboxylic acid] |
| 460 nM |  | O=C(c1ccccc1)c1cccc(-c2ccc(OC[C@@H]3C[C@H]3C(=O)O)cc2)c1 (racemic) [Example 118, Trans-2-(((3′-benzoyl-[1,1′-biphenyl]-4-yl)oxy)methyl) cyclopropanecarboxylic acid] |
| 270 nM |  | O=C(O)[C@@H]1C[C@H]1COc1ccc(-c2cc(Oc3ccc(F)cc3)ccc2F)cc1 (racemic) [Example 44, Trans-2-(((2′-fluoro-5′-(4-fluorophenoxy)-[1,1′-biphenyl]-4-yl)oxy)methyl)cyclopropanecarboxylic acid] |
| 60 nM |  | CC(C)Oc1ccc(F)c(-c2ccc(C[C@H]3C[C@@H]3CC(=O)O)cc2)c1 (single isomer, unassigned) [Example 36, Trans-(2-((2′-fluoro-5′-isopropoxy-[1,1′-biphenyl]-4-yl)methyl)cyclopropyl)acetic acid] |
| 1250 nM |  | CC1(C)Cc2c(ccc(F)c2-c2ccc(OCC3CC3C(=O)O)cc2)O1 (centres unmarked) [Example 22, 2-((4-(5-Fluoro-2,2-dimethyl-2,3-dihydrobenzofuran-4-yl)phenoxy)methyl) cyclopropanecarboxylic acid] |
| 470 nM |  | CC(C)Oc1ccc(F)c(-c2ccc(OC[C@@H]3C[C@H]3C(=O)O)cc2)c1 (single isomer, unassigned) [Example 3] |
